Results taken from PMC11557314 (Frontiers in Pharmacology, 2024).
Read-outs that look alike come from different tables or passages of the source. Where no end group is shown, it is not given here. [ ]: non-standard residue; d: D form. βAla = NCCC(=O)O

What was measured:
hKOPr [1] = target: T1, hKOPr (Homo sapiens, UniProt P41145); assay: biochemical; details: for EC50: read-out: Potency at hKOPr EC50
hDOPr [2] = target: T2, hDOPr (Homo sapiens, UniProt P41143); assay: Competitive radio binding assay with [3H]-diprenorphine on hDOPr-CHO cell membranes
T2 sequence (P41143 whole entry): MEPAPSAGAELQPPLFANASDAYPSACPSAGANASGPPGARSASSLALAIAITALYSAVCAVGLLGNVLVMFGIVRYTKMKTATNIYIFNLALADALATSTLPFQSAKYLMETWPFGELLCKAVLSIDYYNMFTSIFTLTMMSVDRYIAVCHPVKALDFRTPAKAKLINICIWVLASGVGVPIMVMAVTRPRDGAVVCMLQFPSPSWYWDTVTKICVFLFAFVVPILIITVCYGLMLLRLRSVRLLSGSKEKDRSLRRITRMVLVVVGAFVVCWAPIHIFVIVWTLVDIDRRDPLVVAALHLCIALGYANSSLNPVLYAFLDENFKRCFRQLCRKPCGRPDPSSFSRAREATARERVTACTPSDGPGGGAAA

hKOPr [3] = target: T1, hKOPr; format: binding; details: for Ki: read-out: Ki hKOPr
hMOPr = hMOPr (Homo sapiens, UniProt P35372); assay: Competitive radio binding assay with [3H]-DAMGO on hMOPr-CHO cell membranes; details: read-out: Ki hMOPr; [3H]-DAMGO 1 nM, 60 min 25°C; mean ± SEM
hMOPr, sequence (P35372 whole entry): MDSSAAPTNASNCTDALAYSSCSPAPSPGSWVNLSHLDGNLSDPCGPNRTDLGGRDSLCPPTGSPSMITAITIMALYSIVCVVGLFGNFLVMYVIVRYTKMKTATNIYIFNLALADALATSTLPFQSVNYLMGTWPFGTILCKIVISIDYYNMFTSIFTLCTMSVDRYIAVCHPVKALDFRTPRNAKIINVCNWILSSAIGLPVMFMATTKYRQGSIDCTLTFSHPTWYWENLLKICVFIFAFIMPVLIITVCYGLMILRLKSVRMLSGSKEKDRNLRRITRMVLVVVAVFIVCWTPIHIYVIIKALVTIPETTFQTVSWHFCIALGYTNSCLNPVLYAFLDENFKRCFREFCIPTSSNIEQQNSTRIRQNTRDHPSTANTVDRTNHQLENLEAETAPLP

hKOPr [4] = system: hKOPr; parameters: method as in Bedini et al., 2020; details: result in words; ref Bedini et al., 2020; cited from earlier work
hDOPr [5] = target: T2, hDOPr; assay: [35S]GTPγS functional assay on hDOPr-CHO cell membranes; format: biochemical
Description: CHO cells stably transfected with human KOPr, MOPr, and DOPr (hKOPr-CHO, hMOPr-CHO, and hDOPr-CHO, respectively) were provided by Prof. Liu-Chen (Temple University, Philadelphia, United States). The cells were grown in Gibco™ Dulbecco’s minimal essential medium (DMEM) for hKOPr-CHO or Gibco™ DMEM/F-12 for hMOPr and hDOPr. Both media were supplemented with 10% FBS (Gibco™), GlutaMAX (100 μg/mL; Gibco™), penicillin/streptomycin (100 μg/mL; Gibco™), and geneticin (G418, 400 μg/mL; Gibco™). HEK 293 cells were grown in high-glucose DMEM supplemented with 10% FBS (Gibco™), GlutaMAX (100 μg/mL; Gibco™), and penicillin/streptomycin (100 μg/mL; Gibco™). Cell cultures were maintained in a Heracell™ 150i CO2 incubator at 37°C and 5.0% CO2.
Functional assays were conducted on hKOPr-CHO, hMOPr-CHO, and hDOPr-CHO cell membranes (see above). The membranes were prepared in a buffer containing 20 mM HEPES, 10 μM GDP, cell membrane (10–30 μg), and 0.05 nM [^35S]GTPγS. The buffer containing the cell membranes was incubated with an increasing concentration of the test peptide diluted in 1 × HEPES, pH 7.4, in a total volume of 1 mL, for 60 min at 25°C. The peptide solutions were replaced by diluents for untreated controls. Non-specific binding was determined using unlabeled 10 μM GTPγS. Samples were rapidly washed three times with Tris-HCl and filtered through glass fiber filters (GF/B Whatman). The bound radioactivity was measured by liquid scintillation (Carl Roth GmbH, Karlsruhe, Germany) counting on a Packard 1600 TR Tri-Carb Beta counter (Canberra, Belgium).

hKOPr [6] = target: T1, hKOPr; assay: cell-based; format: cell-based; details: HEK293, read-out: β-Arrestin recruitment, efficacy at hKOPr Emax
hKOPr [7] = assay: Biased factor calculation from GTPγS and PRESTO-Tango data; parameters: species or system human; details: G-protein vs β-arrestin, DynA as reference; below 1 = β-arrestin bias
Description: To perform biased factor analyses, we followed the step-by-step protocol described by [Nagi and Pineyro (2016)]. In short, curve fitting was used to calculate τ and Ka values for G-protein and β-arrestin pathway activation. Log(τ/Ka) ratios were subtracted by log(τ/Ka) of DynA as the reference to yield ΔLog(τ/Ka) values for each peptide. In a final step for each peptide, ΔLog (τ/Ka) values for G-protein pathway activation were subtracted from ΔLog(τ/Ka) values for β-arrestin pathway activation and vice versa to calculate ΔΔLog(τ/Ka). The biased factor is yielded by delogging ΔΔLog (τ/Ka).
To confidently identify a G-protein-biased peptide of interest, it is essential to keep in mind that the responses we collected through GTPγS and PRESTO-Tango assay are not solely determined by drug signaling properties but also by the way the cell and different assays “perceive” the generation of this response. These different “perceptions” of the pharmacological stimulus may themselves be responsible for an imbalance among signals from different pathways. To avoid this, and to be able to correctly estimate whether a peptide is indeed biased, we applied the method proposed by [Kenakin et al. (2012)], that is based on the operational method proposed by [Black and Leff (1983)]. This method takes into consideration receptor occupation by the agonist, communication of the pharmacological stimulus to the system, and the processing of the stimulus by the system that produces the response.

[8] = read-out: Efficacy at hKOPr Emax
[9] = read-out: Ki hDOPr, [3H]-diprenorphine 1 nM, 60 min 25°C, mean ± SEM

T1 sequence (P41145 whole entry): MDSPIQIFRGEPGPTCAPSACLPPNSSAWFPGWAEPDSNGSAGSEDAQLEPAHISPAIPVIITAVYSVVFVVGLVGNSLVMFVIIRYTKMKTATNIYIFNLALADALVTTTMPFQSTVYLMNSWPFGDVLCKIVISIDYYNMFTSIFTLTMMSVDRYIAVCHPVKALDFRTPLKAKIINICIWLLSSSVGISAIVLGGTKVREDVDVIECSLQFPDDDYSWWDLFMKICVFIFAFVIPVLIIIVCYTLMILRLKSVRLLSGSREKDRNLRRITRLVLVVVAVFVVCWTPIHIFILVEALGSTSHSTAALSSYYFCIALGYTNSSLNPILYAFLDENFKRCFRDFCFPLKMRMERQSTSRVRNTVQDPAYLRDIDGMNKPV

Compound	Emax (hKOPr [1]; [8]) [%]	EC50 (hKOPr [1]) [nM]	Ki (hDOPr [2]; [9]) [nM]	Selectivity DOPr/KOPr (hKOPr [3])	Selectivity MOPr/KOPr (hKOPr [3])	Ki (hKOPr [3]) [nM]	Ki (hMOPr) [nM]	agonist category at hKOPr (GTPγS) (hKOPr [1])	further results
YGAFLRRQFAVVT [DynB_G3A/K10 A]	84 ± 3.6	16.7 ± 2.45	497 ± 105	317	58	1.57	90.4 ± 7.6		
YGGFLRRAFKVVT [DynB_Q8A]	125 ± 12.3								
YGAFSRRQFKVVT [DynB_G3A/L5S]	92.5 ± 5.7	116 ± 11.2	3790	2,195	57	1.73	98.3 ± 5.9		decrease of potency compared to DynB_WT (hKOPr [1]): more than 20 fold; potency for hKOPr as compared to DynB (GTPγS) (hKOPr [1]): strongly reduced potency
FGGFLRRQFKVVT [DynB_Y1F]	110 ± 5.5	393 ± 47.3	1620	44		37.3	217 ± 13.5		potency for hKOPr as compared to DynB (GTPγS) (hKOPr [1]): strongly reduced potency
cyclo(FG[βAla][dW]) [LOR17]									G-protein bias at the hKOPr (hKOPr [4]): strong G-protein bias
YGMFLRRQFKVVT [DynB_G3M]	54.5 ± 1.8	14.1 ± 4.17	85.3 ± 16.4	141	193	0.61	117 ± 6.9	partial agonists	
YGGFLRRHFKVVT [DynB_Q8H]	111.5 ± 0.9	2.25 ± 0.47	106 ± 17.1	507	36	0.21	7.7 ± 1.4		
CC(C)C[C@H](NC(=O)[C@H](Cc1ccccc1)NC(=O)CNC(=O)CNC(=O)[C@@H](N)Cc1ccc(O)cc1)C(=O)N[C@@H](CCCNC(=N)N)C(=O)N[C@@H](CCCNC(=N)N)C(=O)N[C@@H](CCC(N)=O)C(=O)N[C@@H](Cc1ccccc1)C(=O)N[C@@H](CCCCN)C(=O)N[C@H](C(=O)N[C@H](C(=O)N[C@H](C(=O)O)[C@@H](C)O)C(C)C)C(C)C [DynB_WT, dynorphin B, reference compound]	120 ± 1.5								hKOPr % stim, stimulation of [35S]GTPγS binding (hKOPr [1]): 120 ± 1.5%; preference for hKOPr over hDOPr (GTPγS) (hKOPr [1]): 12 fold; preference for hKOPr over hMOPr (GTPγS) (hKOPr [1]): 6 fold; Emax (hKOPr [1]; read-out: Emax higher than DynA): 20%; EC50 (hDOPr [5]): 59.3 ± 6.7 nM; hDOPr % stim, stimulation of [35S]GTPγS binding (hDOPr [5]; Table 3, normalized to DynA, mean ± SEM): 104 ± 3.6%; Emax (hKOPr [6]): 111 ± 5.3%; Ki (hDOPr [2]): 80.2 ± 6.4 nM; biased factor at hKOPr (hKOPr [7]): 0.8 ± 0.2
YGAFLRRHFKVVT [DynB_G3A/Q8H]	74.9 ± 1.6	6.77 ± 0.82	460 ± 44.2	1,508	137	0.3	41.9 ± 1.3	partial agonists	
YGMFSRRQFKVVT [DynB_G3M/L5S]	52.6 ± 1.6	170 ± 23.7	8080	1,115	40	7.24	290 ± 17.9	partial agonists	potency for hKOPr as compared to DynB (GTPγS) (hKOPr [1]): strongly reduced potency
YGAFLRRQFKVVT [DynB_G3A]	83.4 ± 5.5	27.9 ± 8.72	317 ± 34.1	149	39	2.13	82.3 ± 7.9		
YGMFLRRHFKVVT [DynB_G3M/Q8H]	42.1 ± 1.3	5.43 ± 0.53	167 ± 19	459	268	0.36	97.1 ± 15.8	partial agonists	
YGGFLRRQFAVVT [DynB_K10 A]	132 ± 3.9								
